Literature values as cited in US20240408079A1, “COMPOSITIONS AND METHODS FOR THE TREATMENT OF CANCER” (THE TRANSLATIONAL GENOMICS RESEARCH INSTITUTE, priority 2021, published 2024).

How the values were obtained:
[1] = preclinical studies, in vivo
EWS-FLI = conditions: preclinical studies
ES cell lines = conditions: multiple ES cell lines

Compound | antitumoral activity [1] | transcriptional profiles driven by EWS-FLI (EWS-FLI) | tumorigenesis in vitro (EWS-FLI) | tissue culture cell viability (ES cell lines)
Seclidemstat [SP-2577] | little antitumoral activity in vivo | reverse the transcriptional profiles | significantly delay tumorigenesis | ability to impair tissue culture cell viability
C/C(=N\NC(=O)c1cccc(S(=O)(=O)N2CCOCC2)c1)c1cc(Cl)ccc1O [SP-2509] |  | reverse the transcriptional profiles | significantly delay tumorigenesis | 
